# Assay results reported in patent US8846327B2, “Method of quantifying autoinducer-2” (priority 2007, dated 2014).
# How the values were obtained:
# AI-2 = details: Niu C. et al., Lett. Appl. Microbiol. 2006; cited from earlier work
# [1] = test system: Vibrio harveyi BB170 strain; details: Keersmaecker et al.; reporter strain of Vibrio harveyi; activity detected at considerably higher concentration than DPD; cited from earlier work
# [2] = test system: Vibrio harveyi BB170 strain; experiment: AI-2 reporter bioassay: photogenesis intensity of Vibrio harveyi BB170 reporter bacterium; assay type: cell-based
# Protocol: An HMF authentic preparation (SIGMA) and a DPD authentic preparation (examination of synthesis was requested to OMM Scientific, and a product synthesized by the company was purchased) were added at a final concentration of 0.001 to 1000 μM to a Vibrio harveyi BB170 strain (purchased from ATCC, cultured under aerobic conditions at 30° C. in a marine medium (manufactured by Difco)) used as an autoinducer-2 (AI-2) reporter bacterium. The photogenesis intensity as the index of the AI-2 activity was measured in the same way as in Keersmaecker S. C. J. et al., J. Biol. Chem., 280(20), pp. 19563-19568, 2005. Namely, the Vibrio harveyi BB170 strain was diluted to 5000-fold as a final concentration with an AB medium (for example, see Bassler et al., Mol. Microbiol., 9, pp. 773-786, 1993), and the reporter bacterium liquid and the authentic preparations were mixed at a volume ratio of 9:1, followed by culturing with aerobic shaking at 30° C. Four hours later, the photogenesis intensity was measured using a chemiluminescence analyzer (Berthold, Mitharas LB940 (product name), detecting chemiluminescence). FIG. 1 illustrates a correlation between the concentrations of the HMF authentic preparation and DPD authentic preparation, and the photogenesis intensity. The HMF authentic preparation and DPD authentic preparation were prepared in glass containers. […]
SMILES,AI-2-inhibiting activity (AI-2),autoinducer-2 activity [1],HMF concentration detectable in the bioassay ([2]; calibration curve prepared using glass containers),HMF-induced photogenesis intensity of the reporter bacterium compared with autoinducer-2 ([2]; reporter bacterium light emission)
"O=CC=Cc1ccccc1 [Cinnamaldehyde, 3-phenyl-2-propenal]",having an AI-2-inhibiting activity,–,–,–
"CC1=C(O)C(=O)CO1 [HMF, 4-hydroxy-5-methyl-3(2H)-furanone]",–,has an autoinducer-2 activity,≤ 0.1 µM,lower than the photogenesis intensity induced by autoinducer-2
